Experimental data: patent publication US20240425501A1, “NOVEL BICYCLIC HETEROARYL DERIVATIVES AS SOS1:KRAS PROTEINPROTEIN INTERACTION INHIBITORS” (SATYARX PHARMA INNOVATIONS PVT LTD, priority 2021, published 2024)

Target: T1, hSOS1 enzyme / KRAS (G12C), GST-Tag, GDP-bound protein (Homo sapiens, UniProt Q07889)
T1 sequence (Q07889 564-1049 limits assumed): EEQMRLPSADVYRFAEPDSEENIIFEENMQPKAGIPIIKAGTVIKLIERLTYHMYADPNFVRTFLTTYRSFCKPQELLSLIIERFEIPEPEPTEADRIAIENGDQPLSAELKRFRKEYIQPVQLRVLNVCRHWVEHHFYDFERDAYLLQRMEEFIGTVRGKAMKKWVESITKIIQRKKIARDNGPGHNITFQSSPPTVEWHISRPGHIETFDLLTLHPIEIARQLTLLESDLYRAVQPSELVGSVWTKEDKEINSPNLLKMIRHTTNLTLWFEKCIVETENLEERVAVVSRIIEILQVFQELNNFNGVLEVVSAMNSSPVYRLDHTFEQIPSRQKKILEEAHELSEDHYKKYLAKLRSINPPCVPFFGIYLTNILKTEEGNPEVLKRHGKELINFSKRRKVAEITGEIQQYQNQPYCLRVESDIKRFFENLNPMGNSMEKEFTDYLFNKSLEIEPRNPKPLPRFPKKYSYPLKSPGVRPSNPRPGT
Assay: SOS1-mediated KRAS guanine nucleotide exchange (GEF) assay, HTRF ("On Assay")
Type: biochemical
Conditions: 1 μM compound
Description: Biochemical Assay: Measurement of SOS1-Mediated KRAS Guanine Nucleotide Exchange (GEF) Assay
This assay quantifies the HTRF-based SOS1 mediated guanine nucleotide exchange assay detecting GTP binding to KRAS (G12C), GST-Tag, GDP-bound protein. This is also referred as “On Assay”.The assay buffer composition is as follows: 10 mM HEPES pH-7, 150 mM NaCl, 5 mM MgCl2, 1 mM DTT, 0.05% BSA, 0.0025% IGEPAL CA-630 and MilliQ water. 0.5 μl of compounds diluted in assay buffer were dispensed into the respective wells of 384 black well test plate. 4.75 μl of KRAS working solution containing 100 nM KRAS (G12C), GST-Tag, GDP-bound protein GDP-loaded (Reaction biology) and 2 nM Anti GST-Tb cryptate (FRET donor, Cisbio) was added in assay buffer. The components were incubated for 10 min at 25° C.
4.75 μl of hSOS1 working solution containing 20 nM hSOS1 enzyme and 200 nM EDA-GTP-DY-647P (FRET acceptor, synthesized by Jena Bioscience (Germany), supplied as a 1 mM solution) was further added in assay buffer. 4.75 μl of inhibitor control having only 200 nM EDA-GTP-DY-647P1 component without hSOS1 working solution was added in the negative control well. The plate was short spun for few seconds and incubated for 10 min. HTRF was measured using Perkin Elmer-Nivo 5F multimode plate reader.
HTRF settings: EXCITATION FILTER—320/75 nm, EMISSION FILTER (1) —615/8 nm, EMISSION FILTER (2)—665/8 nm

Structure (SMILES) | inhibition at 1 µM [%]
C[C@@H](Nc1nc(Cl)nc2cnc(N3CCN(C4CC4)CC3)cc12)c1cc(N)cc(C(F)(F)F)c1 [Example 26, (R)—N-(1-(3-amino-5-(trifluoromethyl)phenyl)ethyl)-2-chloro-6-(4-cyclopropylpiperazin-1-yl)pyrido[3,4-d]pyrimidin-4-amine] | ≥ 50
CC1CCN(c2cc3c(N[C@H](C)c4cc(N)cc(C(F)(F)F)c4)nc(Cl)nc3cn2)CC1 [Example 27, (R)—N-(1-(3-amino-5-(trifluoromethyl)phenyl)ethyl)-2-chloro-6-(4-methylpiperidin-1-yl)pyrido[3,4-d]pyrimidin-4-amine] | ≥ 50
C[C@@H](Nc1nc(Cl)nc2cnc(N3CCN(C4CCC4)CC3)cc12)c1cc(N)cc(C(F)(F)F)c1 [Example 28, (R)—N-(1-(3-amino-5-(trifluoromethyl)phenyl)ethyl)-2-chloro-6-(4-cyclobutylpiperazin-1-yl)pyrido[3,4-d]pyrimidin-4-amine] | ≥ 50
C[C@@H](Nc1nc(Cl)nc2cnc(N3CCC(O)CC3)cc12)c1cc(N)cc(C(F)(F)F)c1 [Example 29, (R)-1-(4-((1-(3-amino-5-(trifluoromethyl)phenyl)ethyl)amino)-2-chloropyrido[3,4-d]pyrimidin-6-yl)piperidin-4-ol] | ≥ 50
CNc1nc(N[C@H](C)c2cc(N)cc(C(F)(F)F)c2)c2cc(N3CCC(OC)CC3)ncc2n1 [Example 30, (R)—N4-(1-(3-amino-5-(trifluoromethyl)phenyl)ethyl)-6-(4-methoxypiperidin-1-yl)-N2-methylpyrido[3,4-d]pyrimidine-2,4-diamine] | ≥ 50
CNc1nc(N[C@H](C)c2cc(N)cc(C(F)(F)F)c2)c2cc(N3CCN(C)CC3)ncc2n1 [Example 31, (R)—N4-(1-(3-amino-5-(trifluoromethyl)phenyl)ethyl)-N2-methyl-6-(4-methylpiperazin-1-yl)pyrido[3,4-d]pyrimidine-2,4-diamine] | ≥ 50
CNc1nc(N[C@H](C)c2cc(N)cc(C(F)(F)F)c2)c2cc(N3CCC(F)(F)CC3)ncc2n1 [Example 32, (R)—N4-(1-(3-amino-5-(trifluoromethyl)phenyl)ethyl)-6-(4,4-difluoropiperidin-1-yl)-N2-methylpyrido[3,4-d]pyrimidine-2,4-diamine] | ≥ 50
CNc1nc(N[C@H](C)c2cc(N)cc(C(F)(F)F)c2)c2cc(N3CCC(F)CC3)ncc2n1 [Example 33, (R)—N4-(1-(3-amino-5-(trifluoromethyl)phenyl)ethyl)-6-(4-fluoropiperidin-1-yl)-N2-methylpyrido[3,4-d]pyrimidine-2,4-diamine] | ≥ 50
C[C@@H](Nc1nc(N2CCCC2=O)nc2cnc(N3CCCC3)cc12)c1cc(N)cc(C(F)(F)F)c1 [Example 34, (R)-1-(4-((1-(3-amino-5-(trifluoromethyl)phenyl)ethyl)amino)-6-(pyrrolidin-1-yl)pyrido[3,4-d]pyrimidin-2-yl)pyrrolidin-2-one] | ≥ 50
CNCCNc1nc(N[C@H](C)c2cc(N)cc(C(F)(F)F)c2)c2cc(N3CCOCC3)ncc2n1 [Example 35, (R)—N4-(1-(3-amino-5-(trifluoromethyl)phenyl)ethyl)-N2-(2-(methylamino)ethyl)-6-morpholinopyrido[3,4-d]pyrimidine-2,4-diamine] | ≥ 50
COCCNc1nc(N[C@H](C)c2cc(N)cc(C(F)(F)F)c2)c2cc(N3CCOCC3)ncc2n1 [Example 36, (R)—N4-(1-(3-amino-5-(trifluoromethyl)phenyl)ethyl)-N2-(2-methoxyethyl)-6-morpholinopyrido[3,4-d]pyrimidine-2,4-diamine] | ≥ 50
C[C@@H](Nc1nc(N2CCC2)nc2cnc(N3CCOCC3)cc12)c1cc(N)cc(C(F)(F)F)c1 [Example 37, (R)—N-(1-(3-amino-5-(trifluoromethyl)phenyl)ethyl)-2-(azetidin-1-yl)-6-morpholinopyrido[3,4-d]pyrimidin-4-amine] | ≥ 50
CC(C)Nc1nc(N[C@H](C)c2cc(N)cc(C(F)(F)F)c2)c2cc(N3CCOCC3)ncc2n1 [Example 38, (R)—N4-(1-(3-amino-5-(trifluoromethyl)phenyl)ethyl)-N2-isopropyl-6-morpholinopyrido[3,4-d]pyrimidine-2,4-diamine] | ≥ 50
CNCCNc1nc(N[C@H](C)c2cc(N)cc(C(F)(F)F)c2)c2cc(N3CCCC3)ncc2n1 [Example 39, (R)—N4-(1-(3-amino-5-(trifluoromethyl)phenyl)ethyl)-N2-(2-(methylamino)ethyl)-6-(pyrrolidin-1-yl)pyrido[3,4-d]pyrimidine-2,4-diamine] | ≥ 50
COC1CCN(c2cc3c(N[C@H](C)c4cc(N)cc(C(F)(F)F)c4)nc(N4CCC4)nc3cn2)CC1 [Example 40, (R)—N-(1-(3-amino-5-(trifluoromethyl)phenyl)ethyl)-2-(azetidin-1-yl)-6-(4-methoxypiperidin-1-yl)pyrido[3,4-d]pyrimidin-4-amine] | ≥ 50
COC1CCN(c2cc3c(N[C@H](C)c4cc(N)cc(C(F)(F)F)c4)nc(N(C)C)nc3cn2)CC1 [Example 41, (R)—N4-(1-(3-amino-5-(trifluoromethyl)phenyl)ethyl)-6-(4-methoxypiperidin-1-yl)-N2,N2-dimethylpyrido[3,4-d]pyrimidine-2,4-diamine] | ≥ 50
COC1CCN(c2cc3c(N[C@H](C)c4cc(N)cc(C(F)(F)F)c4)nc(NC(C)C)nc3cn2)CC1 [Example 42, (R)—N4-(1-(3-amino-5-(trifluoromethyl)phenyl)ethyl)-N2-isopropyl-6-(4-methoxypiperidin-1-yl)pyrido[3,4-d]pyrimidine-2,4-diamine] | ≥ 50
C[C@@H](Nc1nc(N(C)C)nc2cnc(N3CCC(F)CC3)cc12)c1cc(N)cc(C(F)(F)F)c1 [Example 43, (R)—N4-(1-(3-amino-5-(trifluoromethyl)phenyl)ethyl)-6-(4-fluoropiperidin-1-yl)-N2,N2-dimethylpyrido[3,4-d]pyrimidine-2,4-diamine] | ≥ 50
C[C@@H](Nc1nc(N2CCC2)nc2cnc(N3CCC(F)CC3)cc12)c1cc(N)cc(C(F)(F)F)c1 [Example 44, (R)—N-(1-(3-amino-5-(trifluoromethyl)phenyl)ethyl)-2-(azetidin-1-yl)-6-(4-fluoropiperidin-1-yl)pyrido[3,4-d]pyrimidin-4-amine] | ≥ 50
C[C@@H](Nc1nc(N(C)C)nc2cnc(N3CCN(C)CC3)cc12)c1cc(N)cc(C(F)(F)F)c1 [Example 45, (R)—N4-(1-(3-amino-5-(trifluoromethyl)phenyl)ethyl)-N2,N2-dimethyl-6-(4-methylpiperazin-1-yl)pyrido[3,4-d]pyrimidine-2,4-diamine] | ≥ 50
C[C@@H](Nc1nc(N2CCC2)nc2cnc(N3CCN(C)CC3)cc12)c1cc(N)cc(C(F)(F)F)c1 [Example 46, (R)—N-(1-(3-amino-5-(trifluoromethyl)phenyl)ethyl)-2-(azetidin-1-yl)-6-(4-methylpiperazin-1-yl)pyrido[3,4-d]pyrimidin-4-amine] | ≥ 50
CC1CCN(c2cc3c(N[C@H](C)c4cc(N)cc(C(F)(F)F)c4)nc(N4CCC4)nc3cn2)CC1 [Example 47, (R)—N-(1-(3-amino-5-(trifluoromethyl)phenyl)ethyl)-2-(azetidin-1-yl)-6-(4-methylpiperidin-1-yl)pyrido[3,4-d]pyrimidin-4-amine] | < 50
CCN1CCN(c2cc3c(N[C@H](C)c4cc(N)cc(C(F)(F)F)c4)nc(N4CCC4)nc3cn2)CC1 [Example 48, (R)—N-(1-(3-amino-5-(trifluoromethyl)phenyl)ethyl)-2-(azetidin-1-yl)-6-(4-ethylpiperazin-1-yl)pyrido[3,4-d]pyrimidin-4-amine] | ≥ 50
CCN1CCN(c2cc3c(N[C@H](C)c4cc(N)cc(C(F)(F)F)c4)nc(N(C)C)nc3cn2)CC1 [Example 49, (R)—N4-(1-(3-amino-5-(trifluoromethyl)phenyl)ethyl)-6-(4-ethylpiperazin-1-yl)-N2,N2-dimethylpyrido[3,4-d]pyrimidine-2,4-diamine] | ≥ 50
CC(C)N1CCN(c2cc3c(N[C@H](C)c4cc(N)cc(C(F)(F)F)c4)nc(N(C)C)nc3cn2)CC1 [Example 50, (R)—N4-(1-(3-amino-5-(trifluoromethyl)phenyl)ethyl)-6-(4-isopropylpiperazin-1-yl)-N2,N2-dimethylpyrido[3,4-d]pyrimidine-2,4-diamine] | ≥ 50
